In patent publication US6737383B1, “Herbicidal oxadiazolidines” (priority 1999, dated 2004):

Columns and labels:
cocklebur = assay: Test B pre/postemergence cocklebur; type: in vivo, Xanthium strumarium
Procedure, shortened: (§1)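 Test chemicals in a non-phytotoxic solvent mixture with surfactant were sprayed preemergence onto planted seeds and postemergence onto plants 2 to 18 cm tall (1- to 4-leaf stage). After twelve to sixteen days in a greenhouse, injury was visually rated against untreated controls from 0 (no effect) to 10 (complete control).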

corn = assay: Test B pre/postemergence corn; type: in vivo, Zea mays
Procedure, shortened: as §1

crabgrass = assay: Test B pre/postemergence crabgrass; type: in vivo, Digitaria sanguinalis
Procedure, shortened: as §1

giant foxtail = assay: Test B pre/postemergence giant foxtail; type: in vivo, Setaria faberii
Procedure, shortened: as §1

morningglory = assay: Test B pre/postemergence morningglory; type: in vivo, Ipomoea hederacea
Procedure, shortened: as §1

pigweed = assay: Test B pre/postemergence pigweed; type: in vivo, Amaranthus retroflexus
Procedure, shortened: as §1

rape = assay: Test B pre/postemergence rape; type: in vivo, Brassica napus
Procedure, shortened: as §1

soybean = assay: Test B pre/postemergence soybean; type: in vivo, Glycine max
Procedure, shortened: as §1

sugar beet = assay: Test B pre/postemergence sugar beet; type: in vivo, Beta vulgaris
Procedure, shortened: as §1

velvetleaf = assay: Test B pre/postemergence velvetleaf; type: in vivo, Abutilon theophrasti
Procedure, shortened: as §1

wheat = assay: Test B pre/postemergence wheat; type: in vivo, Triticum aestivum
Procedure, shortened: as §1

wild oat = assay: Test B pre/postemergence wild oat; type: in vivo, Avena fatua
Procedure, shortened: as §1

purple nutsedge = assay: Test B pre/postemergence purple nutsedge; type: in vivo, Cyperus rotundus
Procedure, shortened: as §1

rice = assay: Test B flood test rice; type: in vivo, Oryza sativa
Procedure, shortened: (§2)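 Each value is a visual injury score relative to controls, with 10 meaning complete control and 0 no effect. Evaluation took place twelve to sixteen days after the 2-leaf-stage plants were treated and kept in the greenhouse.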

duck salad = assay: Test B flood test duck salad; type: in vivo, Heteranthera limosa
Procedure, shortened: as §2

bamyardgrass = assay: Test B flood test barnyardgrass; type: in vivo, Echinochloa crus-galli
Procedure, shortened: as §2

[1] = Preemergence, Rate 62 g/ha, scale of 0 to 10 where 0 is no effect and 10 is complete control
[2] = Preemergence, Rate 125 g/ha, 0 is no effect, 10 is complete control
[3] = Preemergence, Rate 250 g/ha, scale 0 to 10, 0 is no effect, 10 is complete control
[4] = Preemergence, Rate 500 g/ha, scale 0 to 10 (0 no effect, 10 complete control)
[5] = Rate 62 g/ha, Postemergence, scale of 0 to 10 where 0 is no effect and 10 is complete control
[6] = Rate 125 g/ha, Postemergence, scale 0 to 10
[7] = Rate 500 g/ha, Postemergence, scale 0 to 10
[8] = Rate 62 g/ha, headed Pre-emergence (flood test species), scale 0 to 10 (0 no effect, 10 complete control)
[9] = Rate 125 g/ha, Pre-emergence, flood test species, scale 0 to 10 where 0 is no effect and 10 is complete control
[10] = Rate 250 g/ha, Pre-emergence, flood-test species, scale 0 to 10, 0 is no effect, 10 is complete control
[11] = Rate 500 g/ha, headed Pre-emergence (flood test species), scale 0 to 10 (0 no effect, 10 complete control)

COc1nc(OC)nc(N(C(=O)n2oc(=O)n(C(C)C)c2=O)C(C)C)n1 [Compound 182]
0: Cocklebur plant response rating (cocklebur; [1]) | Cocklebur plant response rating (0 to 10 scale) (cocklebur; [2]) | Cocklebur plant response rating (cocklebur; [3]) | Cocklebur plant response rating (cocklebur; [4]) | Cocklebur plant response rating (cocklebur; [5]) | Cocklebur plant response rating (cocklebur; [6]) | Plant response rating (0 to 10; 0 is no effect, 10 is complete control), Cocklebur (cocklebur; Rate 250 g/ha, Postemergence) | Cocklebur plant response rating (cocklebur; [7]) | Corn plant response rating (corn; [1]) | Corn plant response rating (0 to 10 scale) (corn; [2]) | Corn plant response rating (corn; [3]) | Corn plant response rating (corn; [4]) | Corn plant response rating (corn; [5]) | Corn plant response rating (corn; [6]) | Plant response rating (0 to 10; 0 is no effect, 10 is complete control), Corn (corn; Rate 250 g/ha, Postemergence) | Corn plant response rating (corn; [7]) | Crabgrass plant response rating (crabgrass; [1]) | Crabgrass plant response rating (0 to 10 scale) (crabgrass; [2]) | Crabgrass plant response rating (crabgrass; [3]) | Crabgrass plant response rating (crabgrass; [4]) | Crabgrass plant response rating (crabgrass; [5]) | Crabgrass plant response rating (crabgrass; [6]) | Plant response rating (0 to 10; 0 is no effect, 10 is complete control), Crabgrass (crabgrass; Rate 250 g/ha, Postemergence) | Crabgrass plant response rating (crabgrass; [7]) | Giant foxtail plant response rating (giant foxtail; [1]) | Giant foxtail plant response rating (0 to 10 scale) (giant foxtail; [2]) | Giant foxtail plant response rating (giant foxtail; [3]) | Giant foxtail plant response rating (giant foxtail; [4]) | Giant foxtail plant response rating (giant foxtail; [5]) | Giant foxtail plant response rating (giant foxtail; [6]) | Plant response rating (0 to 10; 0 is no effect, 10 is complete control), Giant foxtail (giant foxtail; Rate 250 g/ha, Postemergence) | Giant foxtail plant response rating (giant foxtail; [7]) | Morningglory plant response rating (morningglory; [1]) | Morningglory plant response rating (0 to 10 scale) (morningglory; [2]) | Morningglory plant response rating (morningglory; [3]) | Morningglory plant response rating (morningglory; [4]) | Morningglory plant response rating (morningglory; [5]) | Morningglory plant response rating (morningglory; [6]) | Plant response rating (0 to 10; 0 is no effect, 10 is complete control), Morningglory (morningglory; Rate 250 g/ha, Postemergence) | Morningglory plant response rating (morningglory; [7]) | Redroot pigweed plant response rating (pigweed; [1]) | Redroot pigweed plant response rating (0 to 10 scale) (pigweed; [2]) | Redroot pigweed plant response rating (pigweed; [3]) | Redroot pigweed plant response rating (pigweed; [4]) | Redroot pigweed plant response rating (pigweed; [5]) | Redroot pigweed plant response rating (pigweed; [6]) | Plant response rating (0 to 10; 0 is no effect, 10 is complete control), Redroot pigweed (pigweed; Rate 250 g/ha, Postemergence) | Redroot pigweed plant response rating (pigweed; [7]) | Rape plant response rating (rape; [1]) | Rape plant response rating (0 to 10 scale) (rape; [2]) | Rape plant response rating (rape; [3]) | Rape plant response rating (rape; [4]) | Rape plant response rating (rape; [5]) | Rape plant response rating (rape; [6]) | Plant response rating (0 to 10; 0 is no effect, 10 is complete control), Rape (rape; Rate 250 g/ha, Postemergence) | Rape plant response rating (rape; [7]) | Soybean plant response rating (soybean; [1]) | Soybean plant response rating (0 to 10 scale) (soybean; [2]) | Soybean plant response rating (soybean; [3]) | Soybean plant response rating (soybean; [4]) | Soybean plant response rating (soybean; [5]) | Soybean plant response rating (soybean; [6]) | Plant response rating (0 to 10; 0 is no effect, 10 is complete control), Soybean (soybean; Rate 250 g/ha, Postemergence) | Soybean plant response rating (soybean; [7]) | Sugarbeets plant response rating (sugar beet; [1]) | Sugarbeets plant response rating (0 to 10 scale) (sugar beet; [2]) | Sugarbeets plant response rating (sugar beet; [3]) | Sugarbeets plant response rating (sugar beet; [4]) | Sugarbeets plant response rating (sugar beet; [5]) | Sugarbeets plant response rating (sugar beet; [6]) | Plant response rating (0 to 10; 0 is no effect, 10 is complete control), Sugarbeets (sugar beet; Rate 250 g/ha, Postemergence) | Sugarbeets plant response rating (sugar beet; [7]) | Velvetleaf plant response rating (velvetleaf; [1]) | Velvetleaf plant response rating (velvetleaf; [3]) | Velvetleaf plant response rating (velvetleaf; [4]) | Velvetleaf plant response rating (velvetleaf; [6]) | Plant response rating (0 to 10; 0 is no effect, 10 is complete control), Velvetleaf (velvetleaf; Rate 250 g/ha, Postemergence) | Velvetleaf plant response rating (velvetleaf; [7]) | Wheat plant response rating (wheat; [1]) | Wheat plant response rating (wheat; [3]) | Wheat plant response rating (wheat; [4]) | Wheat plant response rating (wheat; [6]) | Plant response rating (0 to 10; 0 is no effect, 10 is complete control), Wheat (wheat; Rate 250 g/ha, Postemergence) | Wheat plant response rating (wheat; [7]) | Wild oats plant response rating (wild oat; [1]) | Wild oats plant response rating (wild oat; [3]) | Wild oats plant response rating (wild oat; [4]) | Wild oats plant response rating (wild oat; [6]) | Plant response rating (0 to 10; 0 is no effect, 10 is complete control), Wild oats (wild oat; Rate 250 g/ha, Postemergence) | Wild oats plant response rating (wild oat; [7]) | Nutsedge plant response rating (purple nutsedge; [1]) | Nutsedge plant response rating (0 to 10 scale) (purple nutsedge; [2]) | Nutsedge plant response rating (purple nutsedge; [3]) | Nutsedge plant response rating (purple nutsedge; [4]) | Nutsedge plant response rating (purple nutsedge; [5]) | Nutsedge plant response rating (purple nutsedge; [6]) | Plant response rating (0 to 10; 0 is no effect, 10 is complete control), Nutsedge (purple nutsedge; Rate 250 g/ha, Postemergence) | Nutsedge plant response rating (purple nutsedge; [7]) | Rice plant response rating (rice; [8]) | Rice plant response rating (rice; [9]) | Rice plant response rating (rice; [10]) | Plant response rating, Rice (rice; [11]) | Ducksalad plant response rating (duck salad; [8]) | Ducksalad plant response rating (duck salad; [9]) | Ducksalad plant response rating (duck salad; [10]) | Plant response rating, Ducksalad (duck salad; [11]) | Barnyardgrass plant response rating (bamyardgrass; [8]) | Barnyardgrass plant response rating (bamyardgrass; [9]) | Barnyardgrass plant response rating (bamyardgrass; [10]) | Plant response rating, Barnyardgrass (bamyardgrass; [11])
